We go through 1 molecule from article doi:10.1101/706168v1 (biorxiv, 2019).

The assay deals with TASK-1 (K2P3.1), wild type (Homo sapiens, UniProt O14649). Kind of assay: two-electrode voltage clamp, Xenopus oocytes. In kind it is cell-based. (In general: In two-electrode clamp one electrode senses voltage and the other passes current.)

pEC50: −log10 of the molar value.

TASK-1 (K2P3.1), wild type, sequence (O14649 whole entry): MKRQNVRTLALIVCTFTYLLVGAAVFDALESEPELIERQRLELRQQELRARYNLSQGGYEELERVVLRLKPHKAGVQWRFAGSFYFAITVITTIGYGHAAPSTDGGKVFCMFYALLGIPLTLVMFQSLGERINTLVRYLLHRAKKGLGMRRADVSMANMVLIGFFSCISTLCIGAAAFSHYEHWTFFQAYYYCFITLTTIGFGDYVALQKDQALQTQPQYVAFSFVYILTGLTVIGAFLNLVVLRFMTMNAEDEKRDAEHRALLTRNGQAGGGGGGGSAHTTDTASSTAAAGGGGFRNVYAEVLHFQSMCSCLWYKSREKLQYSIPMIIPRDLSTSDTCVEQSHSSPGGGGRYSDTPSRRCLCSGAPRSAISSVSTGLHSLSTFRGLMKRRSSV

Broadly, the pEC50 is the EC50 on a negative log10 scale, so that one unit is a factor of ten. Lower therefore signals a large EC50. On to `O=C(c1cccc(OC(F)(F)F)n1)N1CCN(Cc2c(-c3ccc(Cl)cc3)nc3ccccn23)CC1` [BAY 2341237, (4-{[2-(4-chlorophenyl)imidazo[1,2-a]pyridin-3-yl]methyl}piperazin-1-yl)[6-(trifluoromethoxy)pyridin-2-yl]methanone], for which the pEC50 was 8.12.
